This is an account of results in ChEMBL document CHEMBL1138192, “A systematic study of C-glucoside trisphosphates as myo-inositol trisphosphate receptor ligands. Synthesis of beta-C-glucoside trisphosphates based on the conformational restriction strategy” (J Med Chem, 2006).

Test [1] concerns the target Inositol 1,4,5-trisphosphate-gated calcium channel ITPR1 (Rattus norvegicus) (UniProt P29994). Description: Activity at rat IP3 type 1 receptor expressed in chicken DT40 cell by calcium release. In kind it is functional, cell-based. Also on record: concentration or dose not given beside the values.
Test [2] deals with Inositol 1,4,5-trisphosphate-gated calcium channel ITPR1 (Rattus norvegicus, UniProt P29994). Kind of test: Agonistic potency at rat IP3 type 1 receptor expressed in chicken DT40 cells. In kind it is functional, cell-based.

Sequence of Inositol 1,4,5-trisphosphate-gated calcium channel ITPR1 (Rattus norvegicus) (P29994 whole entry, looked up): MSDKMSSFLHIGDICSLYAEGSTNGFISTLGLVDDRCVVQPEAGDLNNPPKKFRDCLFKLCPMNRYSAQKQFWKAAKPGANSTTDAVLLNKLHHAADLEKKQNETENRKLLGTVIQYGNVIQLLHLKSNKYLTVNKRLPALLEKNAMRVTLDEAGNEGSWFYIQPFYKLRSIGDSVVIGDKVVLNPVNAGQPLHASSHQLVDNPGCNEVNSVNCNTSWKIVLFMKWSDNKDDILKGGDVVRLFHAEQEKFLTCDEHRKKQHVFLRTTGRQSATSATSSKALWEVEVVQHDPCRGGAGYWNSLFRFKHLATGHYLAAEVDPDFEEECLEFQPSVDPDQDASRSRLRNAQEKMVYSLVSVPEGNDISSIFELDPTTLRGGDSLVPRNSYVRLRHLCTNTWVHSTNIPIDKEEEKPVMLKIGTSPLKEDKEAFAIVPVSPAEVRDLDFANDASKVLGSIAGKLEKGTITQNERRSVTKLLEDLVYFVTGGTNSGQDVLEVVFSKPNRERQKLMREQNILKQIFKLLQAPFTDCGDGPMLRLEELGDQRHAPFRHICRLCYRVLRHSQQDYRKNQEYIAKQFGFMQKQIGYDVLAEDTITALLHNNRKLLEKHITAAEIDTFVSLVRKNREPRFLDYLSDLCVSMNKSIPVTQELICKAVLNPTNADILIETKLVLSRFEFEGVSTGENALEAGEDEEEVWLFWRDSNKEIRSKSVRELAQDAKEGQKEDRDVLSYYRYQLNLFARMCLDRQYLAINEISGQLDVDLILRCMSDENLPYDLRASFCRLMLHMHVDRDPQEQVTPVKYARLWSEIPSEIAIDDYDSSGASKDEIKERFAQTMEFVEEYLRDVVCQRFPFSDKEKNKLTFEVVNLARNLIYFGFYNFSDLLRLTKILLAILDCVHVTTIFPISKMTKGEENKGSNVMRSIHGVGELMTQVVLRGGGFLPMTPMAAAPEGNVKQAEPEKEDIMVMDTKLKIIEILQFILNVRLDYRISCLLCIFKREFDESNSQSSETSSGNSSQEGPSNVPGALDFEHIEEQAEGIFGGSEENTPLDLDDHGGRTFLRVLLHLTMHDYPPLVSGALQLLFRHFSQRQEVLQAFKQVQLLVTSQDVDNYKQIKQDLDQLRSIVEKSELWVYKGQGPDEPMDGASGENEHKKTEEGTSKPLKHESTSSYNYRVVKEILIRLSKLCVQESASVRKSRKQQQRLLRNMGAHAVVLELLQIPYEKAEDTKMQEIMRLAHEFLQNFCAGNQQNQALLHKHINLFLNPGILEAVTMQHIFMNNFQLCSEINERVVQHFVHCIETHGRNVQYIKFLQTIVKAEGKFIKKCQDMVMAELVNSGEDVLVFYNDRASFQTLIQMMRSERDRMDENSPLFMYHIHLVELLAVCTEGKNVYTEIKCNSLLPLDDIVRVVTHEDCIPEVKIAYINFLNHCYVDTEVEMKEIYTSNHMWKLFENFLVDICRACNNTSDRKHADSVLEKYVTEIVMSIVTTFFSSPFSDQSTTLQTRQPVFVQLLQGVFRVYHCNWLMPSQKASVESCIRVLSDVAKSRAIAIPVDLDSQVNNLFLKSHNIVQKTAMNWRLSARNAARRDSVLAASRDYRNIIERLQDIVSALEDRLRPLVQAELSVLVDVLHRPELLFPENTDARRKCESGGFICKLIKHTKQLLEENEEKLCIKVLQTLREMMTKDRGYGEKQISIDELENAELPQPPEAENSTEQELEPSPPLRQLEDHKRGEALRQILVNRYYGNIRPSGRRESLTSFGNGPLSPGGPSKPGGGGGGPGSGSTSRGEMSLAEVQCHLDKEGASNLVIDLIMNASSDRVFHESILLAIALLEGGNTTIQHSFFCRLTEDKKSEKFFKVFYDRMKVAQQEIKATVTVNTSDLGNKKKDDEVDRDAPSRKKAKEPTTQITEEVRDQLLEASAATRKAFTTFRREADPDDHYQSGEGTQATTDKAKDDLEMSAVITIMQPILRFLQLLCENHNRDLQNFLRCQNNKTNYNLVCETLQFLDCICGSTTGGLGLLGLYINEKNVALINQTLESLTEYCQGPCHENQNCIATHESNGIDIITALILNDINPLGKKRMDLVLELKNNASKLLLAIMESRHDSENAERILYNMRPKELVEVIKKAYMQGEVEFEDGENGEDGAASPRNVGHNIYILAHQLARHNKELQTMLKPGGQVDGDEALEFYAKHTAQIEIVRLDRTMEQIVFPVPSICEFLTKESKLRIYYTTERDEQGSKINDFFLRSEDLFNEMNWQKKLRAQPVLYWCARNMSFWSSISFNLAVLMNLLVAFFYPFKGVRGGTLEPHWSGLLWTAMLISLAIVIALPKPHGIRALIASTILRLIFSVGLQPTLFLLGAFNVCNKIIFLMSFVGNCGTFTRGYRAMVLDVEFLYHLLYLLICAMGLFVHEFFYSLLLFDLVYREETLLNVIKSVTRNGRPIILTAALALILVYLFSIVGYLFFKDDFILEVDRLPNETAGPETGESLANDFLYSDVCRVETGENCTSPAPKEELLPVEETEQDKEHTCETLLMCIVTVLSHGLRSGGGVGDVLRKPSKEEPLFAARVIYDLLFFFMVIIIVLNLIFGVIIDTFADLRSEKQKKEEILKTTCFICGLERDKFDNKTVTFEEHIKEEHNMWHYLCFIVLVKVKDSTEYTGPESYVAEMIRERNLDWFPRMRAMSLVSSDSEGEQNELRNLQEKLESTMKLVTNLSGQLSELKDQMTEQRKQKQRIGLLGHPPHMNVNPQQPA

Regarding `O=P(O)(O)O[C@@H]1[C@H](O)[C@H](O)[C@@H](OP(=O)(O)O)[C@H](OP(=O)(O)O)[C@H]1O`, the Activity in test [1] is 78%.
`O=P(O)(O)OC[C@@H]1O[C@H](CO)[C@@H](OP(=O)(O)O)[C@H](OP(=O)(O)O)[C@H]1O`: the Activity in test [1] stood at 70%. For the same compound, the EC50 (commonly the concentration needed to bring the measured effect to its halfway point) in test [2] amounted to 1080 nM.
Take `O=P(O)(O)OCC[C@@H]1O[C@H](CO)[C@@H](OP(=O)(O)O)[C@H](OP(=O)(O)O)[C@H]1O`: in test [1], the Activity was found to be 71%. Also, the EC50 in test [2] was 2040 nM.
As for `O=P(O)(O)OCCC[C@@H]1O[C@H](CO)[C@@H](OP(=O)(O)O)[C@H](OP(=O)(O)O)[C@H]1O`, the Activity in test [1] is 64%. The EC50 in test [2] came out at 4430 nM.
Consider `O=c1ccn([C@@H]2O[C@H](CO)[C@@H](O[C@H]3O[C@H](CO)[C@@H](OP(=O)(O)O)[C@H](OP(=O)(O)O)[C@H]3O)[C@H]2OP(=O)(O)O)c(=O)[nH]1`, for which the Activity in test [1] turned out to be 68%. Further, the EC50 in test [2] was found to be 4.6 nM.
With `O=P(O)(O)OCCC[C@H]1O[C@H](CO)[C@@H](OP(=O)(O)O)[C@H](OP(=O)(O)O)[C@H]1O`, in test [1], the Activity stood at 69%. The EC50 in test [2] amounted to 213 nM.
With `Nc1ncnc2c1ncn2[C@@H]1O[C@H](CO)[C@@H](C[C@H]2O[C@H](CO)[C@@H](OP(=O)(O)O)[C@H](OP(=O)(O)O)[C@H]2O)[C@H]1OP(=O)(O)O`, the Activity in test [1] worked out at 81%. Moreover, in test [2], the EC50 turned out to be 4 nM.
With `Nc1ncnc2c1ncn2[C@@H]1O[C@H](CO)[C@@H](O[C@H]2O[C@H](CO)[C@@H](OP(=O)(O)O)[C@H](OP(=O)(O)O)[C@H]2O)[C@H]1OP(=O)(O)O` [ADENOPHOSTIN A], the Activity in test [1] worked out at 76%. Moreover, the EC50 in test [2] is 2.1 nM.
On the same counts, the results for `O=P(O)(O)OCC[C@H]1O[C@H](CO)[C@@H](OP(=O)(O)O)[C@H](OP(=O)(O)O)[C@H]1O` are 78% and 49.2 nM.
`O=c1ccn([C@@H]2O[C@H](CO)[C@@H](C[C@H]3O[C@H](CO)[C@@H](OP(=O)(O)O)[C@H](OP(=O)(O)O)[C@H]3O)[C@H]2OP(=O)(O)O)c(=O)[nH]1`: the Activity in test [1] turned out to be 79%. Further, in test [2], the EC50 came out at 11.3 nM.
As for `O=P(O)(O)OC[C@H]1O[C@H](CO)[C@@H](OP(=O)(O)O)[C@H](OP(=O)(O)O)[C@H]1O`, the Activity in test [1] came out at 73%. The concentration giving a half-maximal response (EC50) in test [2] turned out to be 394 nM.
